Assay results from ChEMBL document CHEMBL1154879, “Discovery of (thienopyrimidin-2-yl)aminopyrimidines as potent, selective, and orally available pan-PI3-kinase and dual pan-PI3-kinase/mTOR inhibitors for the treatment of cancer” (J Med Chem, 2010).
Active and inactive are the calls of the source. No cut-off for these calls is given here.

Tests used:
Mus musculus [1] = experiment: Inhibition of PI3K/Akt/mTOR pathway signaling in PI3Kalpha mutant expressing human MCF7.1 cells xenografted nu/nu mouse assessed as inhibition of Akt Ser473 phosphorylation at 25 mg/kg, po qd for 21 days measured 1 hr after last administered dose on day 21 by electrochemiluminescence assay; type: functional
Mus musculus [2] = experiment: Inhibition of PI3K/Akt/mTOR pathway signaling in PI3Kalpha mutant expressing human MCF7.1 cells xenografted nu/nu mouse assessed as inhibition of Pras40 Thr246 phosphorylation at 6.25 mg/kg, po qd for 21 days measured 4 hrs after last administered dose on day 21 by ELISA; type: functional
Mus musculus [3] = experiment: Inhibition of PI3K/Akt/mTOR pathway signaling in PI3Kalpha mutant expressing human MCF7.1 cells xenografted nu/nu mouse assessed as inhibition of S6RP Ser235/236 phosphorylation at 25 mg/kg, po qd for 21 days measured 4 hrs after last administered dose on day 21 by electrochemiluminescence assay; type: functional
[4] = target: Mitogen-activated protein kinase kinase kinase 9 (Homo sapiens, UniProt P80192); experiment: Inhibition of MLK1
Chain of Mitogen-activated protein kinase kinase kinase 9 (P80192 whole entry): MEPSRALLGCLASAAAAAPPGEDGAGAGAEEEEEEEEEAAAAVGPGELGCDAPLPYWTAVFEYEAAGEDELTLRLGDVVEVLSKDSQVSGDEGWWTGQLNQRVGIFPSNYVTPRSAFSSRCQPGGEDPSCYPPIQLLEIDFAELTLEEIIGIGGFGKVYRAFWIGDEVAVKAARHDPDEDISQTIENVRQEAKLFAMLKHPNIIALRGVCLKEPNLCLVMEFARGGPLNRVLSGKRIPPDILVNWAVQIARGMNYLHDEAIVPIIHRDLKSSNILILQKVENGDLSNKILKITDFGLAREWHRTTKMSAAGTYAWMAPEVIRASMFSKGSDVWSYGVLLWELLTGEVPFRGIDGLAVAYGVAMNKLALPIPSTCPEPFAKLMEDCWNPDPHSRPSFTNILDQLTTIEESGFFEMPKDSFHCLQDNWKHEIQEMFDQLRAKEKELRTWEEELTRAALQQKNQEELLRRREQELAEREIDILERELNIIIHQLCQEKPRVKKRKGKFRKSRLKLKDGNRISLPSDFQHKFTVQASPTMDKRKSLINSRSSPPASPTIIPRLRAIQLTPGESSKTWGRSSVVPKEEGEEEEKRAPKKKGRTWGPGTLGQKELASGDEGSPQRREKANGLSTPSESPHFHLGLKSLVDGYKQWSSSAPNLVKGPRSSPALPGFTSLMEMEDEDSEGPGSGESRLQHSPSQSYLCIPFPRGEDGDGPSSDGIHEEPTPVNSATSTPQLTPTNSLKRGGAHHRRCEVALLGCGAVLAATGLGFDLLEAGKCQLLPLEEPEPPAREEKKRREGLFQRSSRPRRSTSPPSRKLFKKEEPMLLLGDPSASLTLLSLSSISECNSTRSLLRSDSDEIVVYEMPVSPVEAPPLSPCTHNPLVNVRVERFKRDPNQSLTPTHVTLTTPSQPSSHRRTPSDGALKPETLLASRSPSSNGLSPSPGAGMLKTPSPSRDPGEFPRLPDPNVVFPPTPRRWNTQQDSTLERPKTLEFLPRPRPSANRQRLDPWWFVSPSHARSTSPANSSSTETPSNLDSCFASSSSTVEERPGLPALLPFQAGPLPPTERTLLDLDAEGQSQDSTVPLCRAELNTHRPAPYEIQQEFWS

[5] = AUC in nu/nu mouse at 5 mg/kg, po; type: ADME, organism-based; parameters: dose 5 mg/kg, route oral; conditions: plasma
Mus musculus [6] = experiment: Inhibition of PI3K/Akt/mTOR pathway signaling in PI3Kalpha mutant expressing human MCF7.1 cells xenografted nu/nu mouse assessed as inhibition of S6RP Ser235/236 phosphorylation at 12.5 mg/kg, po qd for 21 days measured 4 hrs after last administered dose on day 21 by electrochemiluminescence assay; type: functional
[7] = target: Phosphatidylinositol 4,5-bisphosphate 3-kinase catalytic subunit alpha isoform (Homo sapiens, UniProt P42336)
[8] = target: Phosphatidylinositol 3-kinase catalytic subunit type 3 (Homo sapiens) (UniProt Q8NEB9); experiment: Inhibition of VPS34 at 1 uM
Chain of Phosphatidylinositol 3-kinase catalytic subunit type 3 (Homo sapiens) (Q8NEB9 whole entry, canonical isoform): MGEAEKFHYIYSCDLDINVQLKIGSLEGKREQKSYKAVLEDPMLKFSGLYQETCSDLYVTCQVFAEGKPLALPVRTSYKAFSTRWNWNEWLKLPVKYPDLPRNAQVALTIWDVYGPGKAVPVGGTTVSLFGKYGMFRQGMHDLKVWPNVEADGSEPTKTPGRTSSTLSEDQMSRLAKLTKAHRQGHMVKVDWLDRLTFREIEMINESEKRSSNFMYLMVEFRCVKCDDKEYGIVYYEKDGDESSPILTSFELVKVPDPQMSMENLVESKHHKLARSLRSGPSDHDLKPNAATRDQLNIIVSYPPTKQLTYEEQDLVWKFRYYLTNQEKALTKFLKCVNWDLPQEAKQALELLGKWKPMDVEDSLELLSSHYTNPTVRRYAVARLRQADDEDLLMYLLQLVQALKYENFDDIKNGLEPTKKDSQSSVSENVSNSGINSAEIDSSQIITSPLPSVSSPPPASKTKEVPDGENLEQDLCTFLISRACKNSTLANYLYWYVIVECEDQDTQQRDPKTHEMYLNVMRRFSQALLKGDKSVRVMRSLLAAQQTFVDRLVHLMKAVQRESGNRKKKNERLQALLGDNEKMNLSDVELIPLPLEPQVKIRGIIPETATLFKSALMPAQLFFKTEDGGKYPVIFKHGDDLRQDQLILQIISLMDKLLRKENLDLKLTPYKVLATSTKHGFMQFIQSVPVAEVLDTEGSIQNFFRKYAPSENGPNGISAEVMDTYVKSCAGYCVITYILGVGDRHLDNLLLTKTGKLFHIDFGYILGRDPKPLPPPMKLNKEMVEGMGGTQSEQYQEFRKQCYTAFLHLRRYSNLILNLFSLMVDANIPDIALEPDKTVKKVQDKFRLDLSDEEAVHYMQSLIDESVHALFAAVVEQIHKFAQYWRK

[9] = target: Phosphatidylinositol 4,5-bisphosphate 3-kinase catalytic subunit beta isoform (Homo sapiens, UniProt P42338); experiment: Inhibition of recombinant PI3Kbeta assessed as PIP3 product formation by fluorescence polarization assay
[10] = target: Phosphatidylinositol 4-phosphate 3-kinase C2 domain-containing subunit beta (Homo sapiens) (UniProt O00750); experiment: Inhibition of PIK3C2beta at 1 uM
Chain of Phosphatidylinositol 4-phosphate 3-kinase C2 domain-containing subunit beta (Homo sapiens) (O00750 whole entry, the tested form may be a part): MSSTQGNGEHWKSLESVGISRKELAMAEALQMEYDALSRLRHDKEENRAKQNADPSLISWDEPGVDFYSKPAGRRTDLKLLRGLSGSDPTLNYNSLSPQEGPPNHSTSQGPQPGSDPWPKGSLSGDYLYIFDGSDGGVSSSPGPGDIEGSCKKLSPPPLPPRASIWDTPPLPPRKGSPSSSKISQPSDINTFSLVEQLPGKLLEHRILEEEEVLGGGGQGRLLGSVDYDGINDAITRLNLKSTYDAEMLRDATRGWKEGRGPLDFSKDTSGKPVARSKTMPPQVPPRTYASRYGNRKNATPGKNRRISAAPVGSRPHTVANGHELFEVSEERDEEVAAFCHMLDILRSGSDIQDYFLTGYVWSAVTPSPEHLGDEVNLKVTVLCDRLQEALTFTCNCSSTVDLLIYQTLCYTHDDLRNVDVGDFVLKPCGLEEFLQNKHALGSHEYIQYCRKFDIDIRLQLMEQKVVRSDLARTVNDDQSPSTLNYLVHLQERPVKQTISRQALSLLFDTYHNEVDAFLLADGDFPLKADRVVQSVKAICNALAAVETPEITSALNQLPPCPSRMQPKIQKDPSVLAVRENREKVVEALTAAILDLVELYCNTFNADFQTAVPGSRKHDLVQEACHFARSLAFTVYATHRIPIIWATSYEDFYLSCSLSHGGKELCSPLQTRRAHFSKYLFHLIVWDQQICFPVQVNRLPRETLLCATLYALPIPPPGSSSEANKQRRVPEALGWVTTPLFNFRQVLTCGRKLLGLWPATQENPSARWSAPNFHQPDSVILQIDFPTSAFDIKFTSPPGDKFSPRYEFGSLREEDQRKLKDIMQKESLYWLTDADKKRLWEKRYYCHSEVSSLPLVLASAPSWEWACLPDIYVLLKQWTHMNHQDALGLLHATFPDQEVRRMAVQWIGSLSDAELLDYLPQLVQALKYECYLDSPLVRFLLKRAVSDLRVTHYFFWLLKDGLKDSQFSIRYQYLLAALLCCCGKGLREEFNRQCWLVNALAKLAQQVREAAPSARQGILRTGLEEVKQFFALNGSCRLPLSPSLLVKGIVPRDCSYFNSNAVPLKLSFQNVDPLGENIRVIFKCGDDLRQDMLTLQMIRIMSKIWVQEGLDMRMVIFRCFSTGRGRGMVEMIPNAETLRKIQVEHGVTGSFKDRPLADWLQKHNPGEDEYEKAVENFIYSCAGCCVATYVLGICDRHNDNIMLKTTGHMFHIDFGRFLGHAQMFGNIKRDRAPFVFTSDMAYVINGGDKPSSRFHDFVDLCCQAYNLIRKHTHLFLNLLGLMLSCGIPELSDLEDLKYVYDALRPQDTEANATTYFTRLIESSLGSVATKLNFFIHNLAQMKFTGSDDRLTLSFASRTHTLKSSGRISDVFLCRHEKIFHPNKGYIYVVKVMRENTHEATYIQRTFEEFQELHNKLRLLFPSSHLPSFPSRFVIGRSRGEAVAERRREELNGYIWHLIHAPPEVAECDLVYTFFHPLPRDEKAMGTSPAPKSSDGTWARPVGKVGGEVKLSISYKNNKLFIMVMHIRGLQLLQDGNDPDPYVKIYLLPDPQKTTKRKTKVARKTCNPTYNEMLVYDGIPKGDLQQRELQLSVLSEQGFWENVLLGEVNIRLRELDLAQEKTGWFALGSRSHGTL

PC-3 = experiment: Antiproliferative activity against human PC3 cells deficient in PTEN in after 3 to 4 days; type: functional, cell-based
Mus musculus [11] = experiment: Toxicity in human MCF7.1 cells expressing PI3Kalpha mutant xenografted nu/nu mouse assessed as body weight loss at 25 mg/kg, po qd for 21 days; type: organism-based; parameters: dose 25 mg/kg, route oral; conditions: in vivo, 504 h
Mus musculus [12] = experiment: Inhibition of PI3K/Akt/mTOR pathway signaling in PI3Kalpha mutant expressing human MCF7.1 cells xenografted nu/nu mouse assessed as inhibition of Pras40 Thr246 phosphorylation at 12.5 mg/kg, po qd for 21 days measured 1 hr after last administered dose on day 21 by ELISA; type: functional
Mus musculus [13] = experiment: Inhibition of PI3K/Akt/mTOR pathway signaling in PI3Kalpha mutant expressing human MCF7.1 cells xenografted nu/nu mouse assessed as inhibition of Pras40 Thr246 phosphorylation at 25 mg/kg, po qd for 21 days measured 1 hr after last administered dose on day 21 by ELISA; type: functional
[14] = Antiproliferative activity against human MCF7.1 cells expressing PI3Kalpha mutant after 3 to 4 days; type: functional, cell-based
Mus musculus [15] = experiment: Inhibition of PI3K/Akt/mTOR pathway signaling in PI3Kalpha mutant expressing human MCF7.1 cells xenografted nu/nu mouse assessed as inhibition of S6RP Ser235/236 phosphorylation at 12.5 mg/kg, po qd for 21 days measured 1 hr after last administered dose on day 21 by electrochemiluminescence assay; type: functional
Mus musculus [16] = experiment: Inhibition of PI3K/Akt/mTOR pathway signaling in PI3Kalpha mutant expressing human MCF7.1 cells xenografted nu/nu mouse assessed as inhibition of Akt Ser473 phosphorylation at 12.5 mg/kg, po qd for 21 days measured 4 hrs after last administered dose on day 21 by electrochemiluminescence assay; type: functional
[17] = Half life in nu/nu mouse at 5 mg/kg, po; type: ADME, organism-based; parameters: dose 5 mg/kg, route oral; conditions: in vivo
Mus musculus [18] = experiment: Inhibition of PI3K/Akt/mTOR pathway signaling in PI3Kalpha mutant expressing human MCF7.1 cells xenografted nu/nu mouse assessed as inhibition of Akt Ser473 phosphorylation at 6.25 mg/kg, po qd for 21 days measured 4 hrs after last administered dose on day 21 by electrochemiluminescence assay; type: functional
Mus musculus [19] = experiment: Inhibition of PI3K/Akt/mTOR pathway signaling in PI3Kalpha mutant expressing human MCF7.1 cells xenografted nu/nu mouse assessed as inhibition of Pras40 Thr246 phosphorylation at 25 mg/kg, po qd for 21 days measured 4 hrs after last administered dose on day 21 by ELISA; type: functional
[20] = Antitumor activity against human MCF7.1 cells expressing PI3Kalpha mutant xenografted in nu/nu mouse assessed as inhibition of tumor growth at 6.25 mg/kg, po qd for 21 days; type: functional; conditions: MCF7.1, 504 h, read-out: TGI
MCF7.1 = experiment: Antitumor activity against human MCF7.1 cells expressing PI3Kalpha mutant xenografted in nu/nu mouse assessed as inhibition of tumor growth at 25 mg/kg, po qd for 21 days; type: functional, organism-based; parameters: dose 25 mg/kg
Mus musculus [21] = experiment: Inhibition of PI3K/Akt/mTOR pathway signaling in PI3Kalpha mutant expressing human MCF7.1 cells xenografted nu/nu mouse assessed as inhibition of S6RP Ser235/236 phosphorylation at 6.25 mg/kg, po qd for 21 days measured 1 hr after last administered dose on day 21 by electrochemiluminescence assay; type: functional
[22] = Volume of distribution at steady state in nu/nu mouse at 1 mg/kg, iv; type: ADME, organism-based; parameters: dose 1 mg/kg, route intravenous; conditions: in vivo, read-out: Vdss
[23] = Protein binding in mouse plasma; type: ADME, cell-free; conditions: read-out: PPB (converted)
Mus musculus [24] = experiment: Inhibition of PI3K/Akt/mTOR pathway signaling in PI3Kalpha mutant expressing human MCF7.1 cells xenografted nu/nu mouse assessed as inhibition of S6RP Ser235/236 phosphorylation at 6.25 mg/kg, po qd for 21 days measured 4 hrs after last administered dose on day 21 by electrochemiluminescence assay; type: functional
[25] = target: Phosphatidylinositol 4-kinase beta (Homo sapiens) (UniProt Q9UBF8); experiment: Inhibition of PI4Kbeta at 1 uM
Chain of Phosphatidylinositol 4-kinase beta (Homo sapiens) (Q9UBF8 2-816 limits assumed): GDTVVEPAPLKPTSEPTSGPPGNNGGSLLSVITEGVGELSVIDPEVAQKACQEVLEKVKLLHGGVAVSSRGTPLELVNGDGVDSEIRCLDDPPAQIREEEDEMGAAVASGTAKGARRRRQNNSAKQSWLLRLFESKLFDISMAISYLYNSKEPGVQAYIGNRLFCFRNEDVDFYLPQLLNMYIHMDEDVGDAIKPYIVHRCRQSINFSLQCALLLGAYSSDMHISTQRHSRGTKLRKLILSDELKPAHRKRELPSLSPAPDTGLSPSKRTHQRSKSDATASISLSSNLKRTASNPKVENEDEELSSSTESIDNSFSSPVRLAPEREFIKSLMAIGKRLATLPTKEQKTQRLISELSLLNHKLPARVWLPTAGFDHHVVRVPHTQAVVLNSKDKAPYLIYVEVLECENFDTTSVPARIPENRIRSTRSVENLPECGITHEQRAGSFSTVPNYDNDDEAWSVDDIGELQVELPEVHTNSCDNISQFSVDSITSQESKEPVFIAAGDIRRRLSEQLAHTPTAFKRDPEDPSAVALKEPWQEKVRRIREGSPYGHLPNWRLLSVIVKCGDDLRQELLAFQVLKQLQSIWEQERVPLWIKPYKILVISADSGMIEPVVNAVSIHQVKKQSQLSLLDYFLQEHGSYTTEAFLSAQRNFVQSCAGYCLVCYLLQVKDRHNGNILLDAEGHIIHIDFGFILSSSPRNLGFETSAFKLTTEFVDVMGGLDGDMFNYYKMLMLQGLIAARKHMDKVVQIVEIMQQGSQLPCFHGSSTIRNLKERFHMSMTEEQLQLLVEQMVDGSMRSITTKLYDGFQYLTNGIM

For Cc1nc(N)ncc1-c1nc(N2CCOCC2)c2sc(C(C)(C)O)cc2n1, the inhibition in vivo at 25 mg/kg (Mus musculus [1]) was 82%, the inhibition in vivo at 6.25 mg/kg (Mus musculus [2]) was 54% and the inhibition in vivo at 25 mg/kg (Mus musculus [3]) was 63%. For the same molecule, the IC50 [4] was over 1000 nM, the AUC [5] was 4.8 µM·h and the inhibition in vivo at 12.5 mg/kg (Mus musculus [6]) was 50%. The IC50 [7] was 3.5 nM, the inhibition [8] was “inactive” and the IC50 [9] was 25 nM. The inhibition [10] was 81%, the IC50 (PC-3) was 490 nM and the Activity (Mus musculus [11]) was “Non-toxic”. For the same molecule, the inhibition in vivo at 12.5 mg/kg (Mus musculus [12]) was 100%, the inhibition in vivo at 25 mg/kg (Mus musculus [13]) was 97% and the IC50 [14] was 280 nM. The inhibition in vivo at 12.5 mg/kg (Mus musculus [15]) was 77%, the inhibition in vivo at 12.5 mg/kg (Mus musculus [16]) was 48% and the half-life [17] was 276 min. For the same molecule, the inhibition in vivo at 6.25 mg/kg (Mus musculus [18]) was 43%, the inhibition in vivo at 25 mg/kg (Mus musculus [19]) was 95% and the inhibition in vivo at 6.25 mg/kg [20] was 28%. The Activity (MCF7.1) was “Active”, the inhibition in vivo at 6.25 mg/kg (Mus musculus [21]) was 70% and the Vd [22] was 3 L/kg. The fraction unbound [23] was 0.27, the inhibition in vivo at 6.25 mg/kg (Mus musculus [24]) was 51% and the inhibition [25] was “inactive”.
